Measurements taken from patent US20150225303A1, “IRON-ESSENTIAL FOR FLORA AND FAUNA” (priority 2012, published 2015).

Assays:
maize crop = assay: Field experiment in maize crop, foliar application; type: in vivo; conditions: for Stem girth R1 / Cobs yield R1 / No. of cobs R1 / Seed yield R1: replicate R1; for Cobs yield MEAN / No. of cobs MEAN / Seed yield MEAN / Stem girth MEAN: mean of R1-R3; for Cobs yield R3 / No. of cobs R3 / Seed yield R3 / Stem girth R3: replicate R3
Experimental: Field experiments in maize crop were conducted using the composition of the present invention at Maize Research Centre, Hyderabad during kharif 2009. […] GRIP (Fe HEDP)-15% […]+27% P2O5-1 g/l of water • […] of water • […] of water • T 5: Fe EDTA-12%-1 g/l of water • T 6: […] Control (Only recommended Fertilizer dose) For all the six treatments, the composition of the present invention was used along with the recommended fertilizer dose (180-60-60 kg N-P2O5-K2O/ha). The composition of the present invention (Fe-HEDP) was applied at three stages 20, 40 and 60 days after sowing. The crops were harvested in the month of November i.e. four months after sowing.

[1] = prior art statement; cited from earlier work
[2] = treatment level 2 (2 g/l of water; GRIP T2 printed as 1 g/l)

## O=C([O-])CN(CCN(CC(=O)[O-])CC(=O)[O-])CC(=O)[O-].[Fe+3] [Fe EDTA, Fe-Ethylene diamine tetra acetic acid]
Maize crop; 1 g/l of water, applied 20, 40 and 60 days after sowing
  Stem girth R1: 6.6 cm
Maize crop; 1 g/l of water
  Cobs yield MEAN: 7516.67 kg/ha
  No. of cobs MEAN: 40.17 ′000 ha
  Seed yield MEAN: 5777.67 kg/ha
  Stem girth MEAN: 6.53 cm
  Cobs yield R1: 6205 kg/ha
  No. of cobs R1: 38.8 ′000 ha
  Seed yield R1: 5022.0 kg/ha
  Cobs yield R3: 8490 kg/ha
  No. of cobs R3: 41.2 ′000 ha
  Seed yield R3: 6448.0 kg/ha
  Stem girth R3: 6.6 cm
Maize crop; [2]
  Cobs yield MEAN: 7875.00 kg/ha
  No. of cobs MEAN: 37.8 ′000 ha
  Seed yield MEAN: 5888.00 kg/ha
  Stem girth MEAN: 6.43 cm
  Cobs yield R1: 6935 kg/ha
  No. of cobs R1: 35.6 ′000 ha
  Seed yield R1: 4355.0 kg/ha
  Stem girth R1: 6.5 cm
  Cobs yield R3: 8200 kg/ha
  No. of cobs R3: 41.0 ′000 ha
  Seed yield R3: 7633.0 kg/ha
  Stem girth R3: 6.1 cm

## O=C([O-])CN(CCN(CC(=O)[O-])CC(=O)[O-])CCN(CC(=O)[O-])CC(=O)[O-].[Fe+3] [Fe-DTPA, Fe-Diethylene triamine penta acetic acid]
[1]
  pH level up to which the chelate is stable: up to 7.0

## O=C([O-])C(NCCNC(C(=O)[O-])c1ccccc1[O-])c1ccccc1[O-].[Fe+3] (centres unmarked) [Fe-EDDHA, Fe-ethylene diamine-N,N′-bis (2-hydroxyphenylacetic acid)]
[1]
  pH level up to which the chelate is stable: up to 11.0
